How the values were obtained:
Human HSP90 alpha = target: T1, Human HSP90 alpha (Homo sapiens, UniProt P07900); test: Measurement of HSP90 enzyme inhibitory activity (ATPase, malachite green); assay type: biochemical; settings: purified human HSP90 alpha, 1 mM ATP added, 37° C., two hours; read-out: Enzyme inhibitory activity (IC50, μM) Human HSP 90α
T1 construct: made in house; host or cells: E. coli BL21 codon plus (Stratagene)
Protocol: HSP90 enzyme inhibitory activity of the compounds of the present invention represented by formula (1) was measured by the following method. Among the 6-phenyl-N-phenyl-(1,3,5)triazin/(1,3)pyrimidin-2,4-diamine derivatives which are known LPAAT-β inhibitors, the following two compounds were used as comparative compounds, and their HSP90 enzyme inhibitory activities were measured similarly by the following method.
Introduction of pETHuHSP90a into E. coli (BL21 codon plus; Stratagene) was followed by O/N incubation in the presence of 0.1 mM IPTG, and the collected E. coli cells were disrupted by ultrasonication in a Lysis buffer (50 mM Tris-HCl (pH8.0), 10 mM MgCl2, 0.1% Triton X-100, Protease inhibitor cocktail tablets (Roche Diagnostics)). The cell lysate solution was centrifuged (10,000 rpm×30 minutes), and the supernatant obtained after centrifugation was used as a crude extract. The crude extract was fractionated using HisPrep FF column and HiTrap Q column (Amersham) to prepare a purified enzyme solution.
An enzyme solution for assays was prepared by dilution of the purified enzyme solution using an assay buffer (50 mM Tris HCl pH7.6, 20 mM KCl, 5 mM MgCl2).
10 μL each of various concentrations of the test substances (10% DMSO solution) was added to each well, and for the positive control wells, 10 μL of 10% DMSO was added. 10 μL of 10% DMSO was also added to the negative control well.
10 μL of 1 mM ATP was added to all of the wells, and the reaction was carried out at 37° C. for two hours.

HCT116 cells = test: Measurement of cell growth inhibition (Cell Counting Kit-8, four days); assay type: cell-based; settings: Homo sapiens, HCT-116, 96 h; HCT116 colon cancer cell line, four days culture; read-out: Cell growth inhibitory activity (IC50, μM) HCT116
Protocol: Cell growth inhibitory activities of the compounds of the present invention represented by formula (1) were measured by the following method.
Cells were maintained under conditions recommended by the provider of each cell line. Cells suspended in a medium were added to solutions containing various concentrations of the test substance, and the cells were cultured at 37° C. in a 5% CO2 incubator. Four days later, Cell Counting Kit-8 was added, and absorbance measurements were taken following the protocol included in the kit.

| SMILES | IC50 (Human HSP90 alpha) | IC50 (HCT116 cells) |
| --- | --- | --- |
| Nc1nc(SCCC(=O)NC[C@@H](O)CO)cc(-c2c(Cl)cc3c4c(cccc24)COC3)n1 [Example 320, 3-[2-amino-6-(5-chloro-1H,3H-benzo[de]isochromen-6-yl)-pyrimidin-4-ylsulfanyl]-N—((R)-2,3-dihydroxy-propyl)-propionamide] | 1.4 µM | 0.63 µM |
| CC(CSc1cc(-c2c(Cl)cc3c4c(cccc24)COC3)nc(N)n1)C(N)=O (stereo not drawn) [Example 321, 3-[2-amino-6-(5-chloro-1H,3H-benzo[de]isochromen-6-yl)-pyrimidin-4-ylsulfanyl]-2-methyl-propionamide] | 1.3 µM | 0.13 µM |
| CNC(=O)C(C)CSc1cc(-c2c(Cl)cc3c4c(cccc24)COC3)nc(N)n1 (stereo not drawn) [Example 322, 3-[2-amino-6-(5-chloro-1H,3H-benzo[de]isochromen-6-yl)-pyrimidin-4-ylsulfanyl]-2,N-dimethyl-propionamide] | 1.7 µM | 0.08 µM |
| CC(CSc1cc(-c2c(Cl)cc3c4c(cccc24)COC3)nc(N)n1)C(=O)NCCO (stereo not drawn) [Example 323, 3-[2-amino-6-(5-chloro-1H,3H-benzo[de]isochromen-6-yl)-pyrimidin-4-ylsulfanyl]-N-(2-hydroxy-ethyl)-2-methyl-propionamide] | 2.8 µM | 0.21 µM |
| NC(=O)CCCSc1cc(-c2c(Cl)cc3c4c(cccc24)COC3)nc(N)n1 [Example 324, 4-[2-amino-6-(5-chloro-1H,3H-benzo[de]isochromen-6-yl)-pyrimidin-4-ylsulfanyl]-butylamide] | 1.8 µM | 0.16 µM |
| NC(=O)OCCSc1cc(-c2c(Cl)cc3c4c(cccc24)COC3)nc(N)n1 [Example 325, carbamic acid 2-[2-amino-6-(5-chloro-1H,3H-benzo[de]isochromen-6-yl)-pyrimidin-4-ylsulfanyl]-ethyl ester] | 2.1 µM | 0.26 µM |
| Nc1nc(SCCCO)cc(-c2c(Cl)cc3c4c(cccc24)COC3)n1 [Example 326, 3-[2-amino-6-(5-chloro-1H,3H-benzo[de]isochromen-6-yl)-pyrimidin-4-ylsulfanyl]-propan-1-ol] | 2.1 µM | 0.52 µM |
| CC(=O)NCCSc1cc(-c2c(Cl)cc3c4c(cccc24)COC3)nc(N)n1 [Example 327, N-{2-[2-amino-6-(5-chloro-1H,3H-benzo[de]isochromen-6-yl)-pyrimidin-4-ylsulfanyl]-ethyl}-acetamide] | 2.1 µM | 0.93 µM |
| CC(=O)NCCCSc1cc(-c2c(Cl)cc3c4c(cccc24)COC3)nc(N)n1 [Example 328, N-{3-[2-amino-6-(5-chloro-1H,3H-benzo[de]isochromen-6-yl)-pyrimidin-4-ylsulfanyl]-propyl}-acetamide] | 2.1 µM | 0.2 µM |
| CS(=O)(=O)NCCSc1cc(-c2c(Cl)cc3c4c(cccc24)COC3)nc(N)n1 [Example 329, N-{2-[2-amino-6-(5-chloro-1H,3H-benzo[de]isochromen-6-yl)-pyrimidin-4-ylsulfanyl]-ethyl}-methanesulfonamide] | 1 µM | 0.31 µM |
| Nc1nc(SCC2CNC(=O)O2)cc(-c2c(Cl)cc3c4c(cccc24)COC3)n1 (stereo not drawn) [Example 330, 5-[2-amino-6-(5-chloro-1H,3H-benzo[de]isochromen-6-yl)-pyrimidin-4-ylsulfanylmethyl]-oxazolidin-2-one] | 1.2 µM | 2.1 µM |
| Nc1nc(SCCNC(=O)CO)cc(-c2c(Cl)cc3c4c(cccc24)COC3)n1 [Example 331, N-{2-[2-amino-6-(5-chloro-1H,3H-benzo[de]isochromen-6-yl)-pyrimidin-4-ylsulfanyl]-ethyl}-2-hydroxy-acetamide] | 1.5 µM | 1.9 µM |
| NC(=O)NCCSc1cc(-c2c(Cl)cc3c4c(cccc24)COC3)nc(N)n1 [Example 332, {2-[2-amino-6-(5-chloro-1H,3H-benzo[de]isochromen-6-yl)-pyrimidin-4-ylsulfanyl]-ethyl}-urea] | 2.2 µM | 0.47 µM |
| N#CCNC(=O)CSc1nc(N)nc(-c2c(Cl)cc3c4c(cccc24)COC3)n1 [Example 333, 2-[4-amino-6-(5-chloro-1H,3H-benzo[de]isochromen-6-yl)-[1,3,5]triazin-2-ylsulfanyl]-N-cyano methyl-acetamide] | 1.9 µM | 0.38 µM |
| COCCNC(=O)CCSc1nc(N)nc(-c2c(Cl)cc3c4c(cccc24)COC3)n1 [Example 334, 3-[4-amino-6-(5-chloro-1H,3H-benzo[de]isochromen-6-yl)-[1,3,5]triazin-2-ylsulfanyl]-N-(2-methoxy-ethyl)-propionamide] | 1.3 µM | 0.16 µM |
| Nc1nc(SCCC(=O)NC[C@@H](O)CO)nc(-c2c(Cl)cc3c4c(cccc24)COC3)n1 [Example 335, 3-[4-amino-6-(5-chloro-1H,3H-benzo[de]isochromen-6-yl)-[1,3,5]triazin-2-ylsulfanyl]-N—((R)-2,3-dihydroxy-propyl)-propionamide] | 1.2 µM | 0.49 µM |
| CNC(=O)C(C)CSc1nc(N)nc(-c2c(Cl)cc3c4c(cccc24)COC3)n1 (stereo not drawn) [Example 337, 3-[4-amino-6-(5-chloro-1H,3H-benzo[de]isochromen-6-yl)-[1,3,5]triazin-2-ylsulfanyl]-2,N-dimethyl-propionamide] | 1.5 µM | 0.018 µM |
| CC(CSc1nc(N)nc(-c2c(Cl)cc3c4c(cccc24)COC3)n1)C(=O)NCCO (stereo not drawn) [Example 338, 3-[4-amino-6-(5-chloro-1H,3H-benzo[de]isochromen-6-yl)-[1,3,5]triazin-2-ylsulfanyl]-N-(2-hydroxy-ethyl)-2-methyl-propionamide] | 1.5 µM | 0.12 µM |
| Nc1nc(SCCCO)nc(-c2c(Cl)cc3c4c(cccc24)COC3)n1 [Example 340, 3-[4-amino-6-(5-chloro-1H,3H-benzo[de]isochromen-6-yl)-[1,3,5]triazin-2-ylsulfanyl]-propan-1-ol] | 3.3 µM | 0.12 µM |
| Nc1nc(SCCNC(=O)CO)nc(-c2c(Cl)cc3c4c(cccc24)COC3)n1 [Example 342, N-{2-[4-amino-6-(5-chloro-1H,3H-benzo[de]isochromen-6-yl)-[1,3,5]triazin-2-ylsulfanyl]-ethyl}-2-hydroxy-acetamide] | 1.3 µM | 0.49 µM |
| NC(=O)CCCSc1nc(N)nc(-c2c(Cl)cc3c4c(cccc24)CSC3)n1 [Example 343, 4-[4-amino-6-(5-chloro-1H,3H-2-thia-phenalen-6-yl)-[1,3,5]triazin-2-ylsulfanyl]-butyramide] | 1.8 µM | 0.015 µM |
